Experimental data: PMC6943578, “Isolation of Novel ACE-Inhibitory and Antioxidant Peptides from Quinoa Bran Albumin Assisted with an In Silico Approach: Characterization, In Vivo Antihypertension, and Molecular Docking” (Molecules, 2019)
Where two headings read alike, the source gives them in different places. Where a SMILES comes first, the peptide text is derived from it.

How the values were obtained:
ACE (from rabbit lung) = target: T1, ACE (from rabbit lung) (Oryctolagus cuniculus, UniProt P12822); test: ACE-inhibitory activity, HHL substrate, spectrophotometric; format: biochemical; conditions: synthetic peptide, 37 °C, 1 h, absorbance at 228 nm, from regression of % inhibition vs concentration, repeated at least three times
T1 construct: ACE (from rabbit lung) were purchased from Sigma-Aldrich Co; purchased Sigma-Aldrich Co; host or cells: rabbit lung tissue
T1 sequence (P12822 34-1310): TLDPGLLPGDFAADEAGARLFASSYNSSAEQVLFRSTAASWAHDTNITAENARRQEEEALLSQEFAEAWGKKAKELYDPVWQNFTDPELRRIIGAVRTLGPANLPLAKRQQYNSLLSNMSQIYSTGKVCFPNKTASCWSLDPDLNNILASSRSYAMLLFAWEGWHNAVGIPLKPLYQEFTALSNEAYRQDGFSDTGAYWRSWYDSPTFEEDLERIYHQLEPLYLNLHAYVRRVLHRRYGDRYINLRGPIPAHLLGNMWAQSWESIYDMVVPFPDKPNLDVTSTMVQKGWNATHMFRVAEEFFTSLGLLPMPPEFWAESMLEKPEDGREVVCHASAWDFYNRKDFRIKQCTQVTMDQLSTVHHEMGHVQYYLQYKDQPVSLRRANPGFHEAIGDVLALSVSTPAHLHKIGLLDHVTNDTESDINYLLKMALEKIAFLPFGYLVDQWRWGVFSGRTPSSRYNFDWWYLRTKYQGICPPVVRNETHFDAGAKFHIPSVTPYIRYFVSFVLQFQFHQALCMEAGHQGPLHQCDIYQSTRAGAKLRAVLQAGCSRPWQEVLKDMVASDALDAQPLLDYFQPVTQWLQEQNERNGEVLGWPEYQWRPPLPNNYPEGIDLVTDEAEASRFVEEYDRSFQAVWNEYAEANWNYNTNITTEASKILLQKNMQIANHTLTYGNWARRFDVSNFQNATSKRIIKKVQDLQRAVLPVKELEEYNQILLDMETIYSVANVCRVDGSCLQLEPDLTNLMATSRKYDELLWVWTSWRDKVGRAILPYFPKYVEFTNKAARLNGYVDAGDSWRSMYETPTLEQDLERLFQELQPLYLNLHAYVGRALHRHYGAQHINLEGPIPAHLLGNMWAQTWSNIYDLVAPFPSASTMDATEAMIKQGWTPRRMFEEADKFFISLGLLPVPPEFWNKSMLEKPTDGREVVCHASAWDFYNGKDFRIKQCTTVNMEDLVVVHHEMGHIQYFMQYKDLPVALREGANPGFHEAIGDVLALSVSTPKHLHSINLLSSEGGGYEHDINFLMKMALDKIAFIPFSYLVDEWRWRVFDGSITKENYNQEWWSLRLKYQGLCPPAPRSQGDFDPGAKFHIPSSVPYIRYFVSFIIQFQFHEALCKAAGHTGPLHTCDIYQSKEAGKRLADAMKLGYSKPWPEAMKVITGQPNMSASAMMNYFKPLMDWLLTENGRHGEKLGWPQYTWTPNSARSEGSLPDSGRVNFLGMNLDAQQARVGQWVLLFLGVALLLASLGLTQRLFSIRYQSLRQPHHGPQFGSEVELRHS
Protocol: The ACE-inhibitory activity was evaluated using HHL as a substrate by monitoring the released hippuric acid using a spectrophotometric method. Briefly, the reaction system comprised 50 µL of ACE (25 mU), 150 µL of 8.3 mM HHL, and 50 µL of sample solutions. After incubation in a shaking water bath (37 °C) for 1 h, 1 M HCl (250 µL) was added to stop the reaction. The hippuric acid formed was subsequently extracted by 1.4 mL ethyl acetate. After centrifugation, 1 mL of the supernatant was collected and evaporated at 80 °C for 60 min in a vacuum. The residue was then dissolved in 2 mL of distilled water and the absorbance at 228 nm was read. The inhibitory activity was calculated as follows:(1) ACE inhibition % = 1− AS/AC ×100, where AC is the absorbance of the ACE solution without an inhibitor and AS is the absorbance of the mixture-contained samples. The IC50 value, the inhibitor concentration required to inhibit half the ACE activity, was acquired by nonlinear regression from a plot of percentage ACE inhibition versus different inhibitor concentrations.

[1] = tested on: spontaneously hypertensive rats (SHRs); test: Body weight of SHRs during administration; format: in vivo, rat; conditions: oral 50, 100, 150 mg/kg once daily, five weeks; p > 0.05
Protocol: Following the method indicated by Zou et al. [26] with some modifications, 20 male SHRs (10 weeks, 230 ± 20 g body weight (bw)) were purchased from Vital River Laboratory Animal Technology Co., Ltd (Beijing, China). After conditioning for one week, the rats were divided into five groups of four rats each. […] High dosage group (150 mg/kg body weight once daily), middle dosage group (100 mg/kg body weight once daily), and low dosage group (50 mg/kg body weight once daily) were orally given the peptide dissolved in 0.9% saline solution via gastric intubation. All of the treatments were conducted for five consecutive weeks. Each week, the systolic blood pressure (SBP) and diastolic blood pressure (DBP) of the rats were measured with a non-invasive blood-pressure apparatus (BP-300A Non-Invasive Blood Pressure Monitoring System, Chengdu, China). The body weight and heart rate of the rats were determined at the same time. At least five readings were recorded and averaged out.

[2] = read-out: ABTS·+ scavenging ability IC50; cited from earlier work
From the text: ABTS·^+ scavenging activity represents the total antioxidant activity of potential antioxidants. […] Moreover, the presence of hydrophobic amino ...

[3] = cited from earlier work
From the text: The presence of some metal ions like Fe^2+ and Cu^2+ can extremely accelerate the oxidative chain reaction of oil and induce the production of more various radicals. […] It was pointed out that amino acid residues such as Pro, Phe, and Arg in the side chain could act a ...

ACE = tested on: ACE; set-up: method as in 2 sources, one per row (each row's own in cited_ref): ref 6 = [6]; PMID 28317757; doi:10.1016/j.foodchem.2017.02.039; 6. Lee S.Y. Hur S.J. Antihypertensive peptides from animal products, marine organisms, and plants Food Chem. 2017 228 506 517 10.1016/j.foodchem.2017.02.039 28317757 ||| ref 25, 30, 31 = [25]; PMID 30229250; doi:10.1039/C8FO00569A; 25. Ling Y. Sun L.P. Zhuang Y.L. Preparation and identification of novel inhibitory angiotensin-I-converting enzyme peptides from tilapia skin gelatin hydrolysates: inhibition kinetics and molecular d || [30]; doi:10.1016/j.lwt.2018.12.059; 30. Bhaskara B. Ananthanarayana L. Jamdar S. Purification, identification, and characterization of novel angiotensin I converting enzyme (ACE) inhibitory peptides from alcalase digested horse gram flo || [31]; doi:10.1016/j.lwt.2016.08.047; 31. Wang X. Chen H. Fu X. Li S. Wei J. A novel antioxidant and ACE inhibitory peptide from rice bran protein: Biochemical characterization and molecular docking study LWT-Food Sci. Technol. 2017 75 93; conditions: peptides from tilapia skin gelatin, horse gram protein, rice bran protein; read-out: IC50 of ACE-inhibitory activity; cited from earlier work
From the text: With the help of databases AHTPDB and BIOPEP, and based on the similarity to the already reported ACE-inhibitory and antioxidant peptides, three peptides, namely […]

CC[C@H](C)[C@H](NC(=O)[C@@H](NC(=O)[C@H](CCC(N)=O)NC(=O)CNC(=O)[C@@H](N)CCCNC(=N)N)C(C)C)C(=O)N[C@@H](Cc1ccc(O)cc1)C(=O)N[C@H](C(=O)N[C@@H](CC(C)C)C(=O)O)C(C)C (H-RGQVIYVL-OH)
IC50 (ACE (from rabbit lung)): 38.2 µM | Side effect on SHRs (heart rate and body weight vs negative control) [1]: no obvious side effect

HPLDSLCL [literature antioxidant peptide]
IC50 [2]: 74.4 µM

Leu-Ala-Arg-Leu [literature peptide from tilapia gelatin]
Fe2+ chelating ability ([3]; at 1 mg/mL, peptide from tilapia gelatin): 46.53%

QLLLQQ
IC50 (ACE): 75 µM

VGLPNSR
IC50 (ACE): 80.9 µM

VTSLDLPVLRW [literature antioxidant peptide]
IC50 [2]: 661 µM

YYIVS [literature peptide from sweet potato protein]
Fe2+ chelating ability ([3]; at 3 mg/mL, peptide from sweet potato protein): 59.74%
